# Source: ChEMBL document CHEMBL1158575, “Glutarimide alkaloids and a terpenoid benzoquinone from Cordia globifera” (J Nat Prod, 2010)
# Activity calls are given as the source filed them. The rule behind the calls is not given here.
# Experiments:
# MOLT-3 = experiment: Cytotoxicity against human MOLT3 cells XTT assay; assay type: functional, cell-based
# HepG2 = experiment: Cytotoxicity against human HepG2 cells MTT assay; assay type: functional, cell-based
# HuCC-A1 = experiment: (§1) Cytotoxicity against human HuCCa1 cells MTT assay; assay type: functional, cell-based
# A549 = experiment: Cytotoxicity against human A549 cells MTT assay; assay type: functional, cell-based
# RAW264.7 = experiment: Inhibition of superoxide anion radical formation in mouse RAW264.7 cells by xanthine/xanthine oxidase assay; assay type: functional, cell-based
# HL-60 = experiment: Suppression of TPA-induced superoxide anion generation in differentiated human HL60 cells at 100 uM; assay type: functional
# [1] = as §1; assay type: functional, cell-based; conditions: HuCC-A1
IC50 (RAW264.7),Compound,IC50 (MOLT-3),Activity (HepG2),Activity (HuCC-A1),Activity (A549),Activity (HL-60),IC50 (HepG2),IC50 [1],IC50 (A549)
54.1 µM,CC(=O)N[C@H]1CCC(=O)N(CC(=O)c2ccccc2)C1=O [CORDIARIMIDE A],145 µM,inactive,inactive,inactive,–,–,–,–
21.7 µM,CC(=O)N[C@H]1CCC(=O)N(C[C@H](O)c2ccccc2)C1=O [CORDIARIMIDE B],44.5 µM,inactive,inactive,inactive,54%,–,–,–
–,C[C@@]12CC3=C(C[C@H]1[C@]1(C)C[C@@H]1C2)C(=O)C=CC3=O [GLOBIFERANE],3.7 µM,–,–,–,–,149 µM,66 µM,149 µM
